According to ChEMBL document CHEMBL1141269, “Pordamacrines A and B, alkaloids from Daphniphyllum macropodum” (2007):

System: Thoracic aorta
Experiment: Vasorelaxant activity against norepinephrine-induced contraction in Wistar rat thoracic aorta at 100 uM
Type: functional
Parameters: scale not given: the % may be the effect or the level left

Structure (SMILES): COC(=O)[C@@H]1C[C@@]23C4=C(CCC5CN6C[C@@H](C)C(O)(C=CC52CO)C63O)CC[C@@H]41 (some centres not stated) [PORDAMACRINE A]
- Activity: 50%

Structure (SMILES): COC(=O)[C@@H]1C[C@@]23C4=C(CCC5CN6C[C@@H](C)C(C=CC52CO)C63O)CC[C@@H]41 (some centres not stated) [PORDAMACRINE B]
- Activity: 47.1%
